In data set [1] the test system is Hartley guinea pigs. Briefly: Lowering effects on plasma cholesterol by use in combination of Compound X and simvastatin (Example 3). Type of data set: in vivo, guinea pig. As to conditions: guinea pigs on 0.05% cholesterol/10% corn oil diet, orally once a day 14 days, average ± standard error (N = 12).
Data set [2] has as its system Hartley guinea pigs. The experiment in a line: Influence of Compound X and cerivastatin on change of muscle-deviated enzymes (Example 6). Format: in vivo, guinea pig. As to conditions: for increases in the creatinine phosphokinase and myoglobin in plasma: cerivastatin 1 mg/kg alone or with Compound X 30 mg/kg.
The test system of data set [3] is Hartley guinea pigs. The experiment in a line: Influence of Compound X and atorvastatin on liver pathological change (Example 4). Type of data set: in vivo, guinea pig. As to conditions: for Total cholesterol: guinea pigs on 0.05% cholesterol/10% corn oil diet, 30 mg/kg alone, orally once a day 14 days, average ± standard error (N = 12). The protocol: Furthermore, the liver was removed and pathological evaluation was conducted.

Data set [4] relates to Hartley guinea pigs. As to conditions: plasma, atorvastatin 50 mg/kg alone, orally once a day 7 days, average ± standard error (N = 12).
Protocol: On the morning of the following day after the 7th administration, blood was collected, and the concentrations of the alanine aminotransferase and the aspartate aminotransferase, which are the markers of hepatic toxicity, in plasma were measured.
Data set [5] has as its system Hartley guinea pigs. Briefly: Lowering effect on plasma cholesterol by use in combination of Compound X and atorvastatin (Example 2). Type of data set: in vivo, guinea pig. Conditions: guinea pigs on 0.05% cholesterol/10% corn oil diet, orally once a day 14 days, average ± standard error (N = 12).
In data set [6] the test system is Hartley guinea pigs. Briefly: Lowering effect on plasma cholesterol by triple combination of Compound X, simvastatin and ezetimibe (Example 7). Type of data set: in vivo, guinea pig. Conditions: guinea pigs on 0.05% cholesterol/10% corn oil diet, Compound X 30 mg/kg alone, orally once a day 14 days; average ± standard error (N = 6).
In a further data set the test system is Wistar Fatty rats. The experiment in a line: Lowering effect on plasma triglyceride by use in combination of Compound X and atorvastatin (Example 1). Format: in vivo, rat. Conditions: 30 mg/kg alone, orally once a day for 8 days, overnight fasting, average ± standard error (N = 6).
Where [7] appears, read: plasma, cerivastatin 1 mg/kg alone, orally once a day 14 days, average ± standard error (N = 16).

For `CCC(C)(C)C(=O)O[C@H]1C[C@@H](C)C=C2C=C[C@H](C)[C@H](CC[C@@H]3C[C@@H](O)CC(=O)O3)[C@H]21` [Simvastatin, simvastatin], the values for the Total cholesterol level in the data set on Hartley guinea pigs [1] (10 mg/kg alone), in the data set with Hartley guinea pigs [1] (30 mg/kg alone) and in the data set on Hartley guinea pigs [1] (100 mg/kg alone) were 41.0 ± 3.6 mg/dL, 43.4 ± 2.2 mg/dL and 31.7 ± 2.6 mg/dL, respectively.

With `COCc1c(C(C)C)nc(C(C)C)c(/C=C/[C@@H](O)C[C@@H](O)CC(=O)O)c1-c1ccc(F)cc1` [Cerivastatin, cerivastatin], in the data set with Hartley guinea pigs [2] (14 days), the “increases in the creatinine phosphokinase and myoglobin in plasma” value is “Significant increases”. In the data set with Hartley guinea pigs [2] (cerivastatin 1 mg/kg alone, orally once a day 14 days, average ± standard error (N = 16)), this compound yielded a TC of 13.2 ± 0.8 mg/dL. Also, in the data set with Hartley guinea pigs [2] (setting [7]), the CK (creatinine phosphokinase) came to 4070 ± 800 U/L and the “Mb (myoglobin)” value is given as 25.7 ± 2.6 ng/mL.

In the case of `CC(C)c1c(C(=O)Nc2ccccc2)c(-c2ccccc2)c(-c2ccc(F)cc2)n1CC[C@@H](O)C[C@@H](O)CC(=O)O` [Atorvastatin, atorvastatin], the Total cholesterol in the data set with Hartley guinea pigs [3] is reported as 32.9 ± 1.5 mg/dL. Also, the Alanine aminotransferase in the data set on Hartley guinea pigs [4] is listed as 48.9 ± 9.7 I.U./L. In addition, the Aspartate aminotransferase with Hartley guinea pigs [4] amounted to 169.0 ± 39.1 I.U./L. Also, the Total cholesterol level was 46.1 ± 3.3 mg/dL in the data set on Hartley guinea pigs [5] (3 mg/kg alone), 37.4 ± 4.1 mg/dL with Hartley guinea pigs [5] (10 mg/kg alone) and 33.5 ± 2.8 mg/dL in the data set on Hartley guinea pigs [5] (30 mg/kg alone).

Consider `COc1cccc([C@H]2O[C@H](CC(=O)N3CCC(CC(=O)O)CC3)C(=O)N(CC(C)(C)COC(C)=O)c3ccc(Cl)cc32)c1OC` [Compound X, N-[[(3R,5S)-1-(3-acetoxy-2,2-dimethylpropyl)-7-chloro-5-(2,3-dimethoxyphenyl)-2-oxo-1,2,3,5-tetrahydro-4,1-benzoxazepin-3-yl]acetyl]piperidine-4-acetic acid], for which the Total cholesterol with Hartley guinea pigs [3] was 40.1 ± 3.1 mg/dL. For the same compound, in the data set on Hartley guinea pigs [3] (guinea pigs, each drug 30 mg/kg, alone or in combination, 14 days), the “Image of the liver cell necrosis” value was “not recognized”. Moreover, the Total cholesterol level with Hartley guinea pigs [6] stood at 43.5 ± 4.1 mg/dL; with Hartley guinea pigs [1] (30 mg/kg alone) it was 40.2 ± 4.7 mg/dL; in the data set with Hartley guinea pigs [5] (30 mg/kg alone), 44.4 ± 4.1 mg/dL. Also, the cholesterol-lowering effect result in the data set on Hartley guinea pigs [2] (Compound X 30 mg/kg added to cerivastatin 1 mg/kg, 14 days) is “slightly increasing”. Also, the “increases in the creatinine phosphokinase and myoglobin in plasma” value in the data set with Hartley guinea pigs [2] (14 days) was “significantly ameliorated the increases”. Besides, the Plasma triglyceride value in the data set with Wistar Fatty rats is 376.5 ± 22.0 mg/dL.
